Series [1] is described as follows: Oral (gavage) repeated dose pharmacokinetic study of M4N in ten excipient formulations. The conditions noted are these: rat, in vivo, 500 mg/kg. As to the method:
The purpose of this study was to provide information on pharmacokinetics of a 500 mg/kg dose of M4N in ten different excipient formulations. […] Crl:(CD)SD male and female rats were assigned to ten dosage groups, five rats per sex per group. Samples were prepared having carriers as follows that were administered to the following groups of subjects:
Each formulation of M4N was administered orally via gavage on three occasions. The concentration of the M4N was 60 mg/mL administered at a dosage volume 8.33 mL/kg, based on the most recent body weight. The rats were given the first dose (day 1 of study) after being fasted overnight followed by a 72 hour washout (recovery) period. On day 5 of study (DS 5), the second dose of test article was administered to non-fasted rats followed by a one week washout (recovery) period. On DS 6, the rats were placed on a high fat diet (approximately 10% fat content versus approximately 5% in a standard diet). […] These observations were also recorded once daily on non dosing days and during the post dosage period. Body weights were recorded at least weekly during the acclimation period, daily during the dosage and at sacrifice terminal weight. Feed consumption values were recorded weekly during the dosage period and at sacrifice (feed left value). […] The time of each blood collection was recorded in the raw data. […]

Series [2] is described as follows: 40 mg/mL M4N/PEG 300 stability, visual appearance. The format is physicochemical. The conditions noted are these: for Visual Appearance: 40 mg/mL M4N/PEG 300. The protocol: The stability of 40 mg/mL M4N dissolved in 100% PEG 300 was evaluated up to 24 hours incubation at 30° C., 45° C. and 60° C. A stock 40 mg/mL M4N in PEG 300 was prepared at 60° C., following the procedure set forth in Example 18. Subsequently, aliquots were removed and incubated at the appropriate temperature. Samples were rotated at 450 rpm during the entire course of incubation. Visual observations and RP-HPLC data were collected throughout. […] The formation of crystals coincided with a loss of soluble M4N (Table 30). The 40 mg/mL M4N/PEG 300 samples incubated at 45° C. and 60° C. were stable after 24 hours incubation as assessed by visual observations and RP-HPLC analysis (Tables 29 and 30).

Turning to `COc1ccc(C[C@@H](C)[C@@H](C)Cc2ccc(OC)c(OC)c2)cc1OC` [Formulation M4N, meso-1,4-bis(3,4-dimethoxyphenyl)-2,3-dimethylbutane], the “Blood levels on high fat diet versus standard diet or fasting” value in series [1] is recorded as “always higher”. Moreover, the visual observation entry in series [2] (40 mg/mL M4N/PEG 300, 6 hours at 30° C.) is reported as “tiny crystals”; in series [2] (40 mg/mL M4N/PEG 300, 24 hours at 30° C.) it was “even more crystals”. Moreover, the “Visual Appearance” value in series [2] (30° C., 2 hours) is listed as “Clear”; in series [2] (30° C., 4 hours), “Clear”; in series [2] (30° C., 6 hours) it was “Few tiny”; in series [2] (30° C., 24 hours), “Many tiny”; in series [2] (45° C., 2 hours) it was “Clear”; in series [2] (45° C., 4 hours) it was “Clear”. Besides, the “Visual Appearance” value in series [2] (45° C., 6 hours) is listed as “Clear”; in series [2] (45° C., 24 hours) it was “Clear”; in series [2] (60° C., 2 hours), “Clear”; in series [2] (60° C., 4 hours), “Clear”; in series [2] (60° C., 6 hours), “Clear”; in series [2] (60° C., 24 hours), “Clear”.

These data come from US20090022803A1, “Oral Formulations For Delivery of Catecholic Butanes Including Ndga Compounds” (priority 2005, published 2009).
